The results in this text go back to patent publication US20240025906A1 (NEURON23, INC., priority 2022, published 2024).

Structures are written as SMILES. pIC50, pKd: −log10 of the molar value. Bounds are passed on as bounds.

For one test, the target named is T1, TYK2 JH2 (Homo sapiens, UniProt P29597).
T1 construct: purchased DiscoverX (KINOMEscan KdELECT service); host or cells: E. coli BL21-derived (T7 phage display) or HEK-293
In words: TYK2 JH2 binding assay (KINOMEscan KdELECT competitive binding). To be noted: TYK2 JH2 domain, KINOMEscan KdELECT (Assay A); read-out: Biochemical TYK2_DiscoverX_JH2_BND_Kd. The method, boiled down: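 Competition binding, KdELECT format. Kinase (phage-tagged, E. coli BL21-derived host; or HEK-293, DNA-tagged) + ligand-coated streptavidin beads + cpd, 1 h RT, final DMSO 0.9%. Wash, elute 30 min with 0.5 μM non-biotinylated ligand; qPCR readout. Kd: 11-pt, 3-fold series.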

Test [1] concerns JAK1/TYK2 pSTAT5 (Tyr694/699) in THP-1 cell line. As to the kind of experiment: IFNa-stimulated JAK1/TYK2 pSTAT5 (Tyr694/699) inhibition cellular assay, AlphaLISA. To be noted: Homo sapiens; THP-1 cells, IFNa-stimulated, AlphaLISA (Assay B); read-out: Cellular_THP1_IFNa-pSTATS_TYK2. Format: cell-based. The method, boiled down: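 pSTAT5 (Tyr694/699) in lysates quantified by AlphaLISA (615 nm) after 30 min IFNa stimulation (100 ng/mL stock) of THP-1 cells. The cells, 2e4 per well in HBSS, had first been exposed 1 h at 37° C. to eight 6-fold compound dilutions, 10000 down to 0.04 nM final. IC50 fitted by 4PL regression, bottom 0, Hill slope −1.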
(In Alpha technology, singlet oxygen from a donor bead excites a nearby acceptor bead.)

T1 sequence (P29597 589-875 limits assumed): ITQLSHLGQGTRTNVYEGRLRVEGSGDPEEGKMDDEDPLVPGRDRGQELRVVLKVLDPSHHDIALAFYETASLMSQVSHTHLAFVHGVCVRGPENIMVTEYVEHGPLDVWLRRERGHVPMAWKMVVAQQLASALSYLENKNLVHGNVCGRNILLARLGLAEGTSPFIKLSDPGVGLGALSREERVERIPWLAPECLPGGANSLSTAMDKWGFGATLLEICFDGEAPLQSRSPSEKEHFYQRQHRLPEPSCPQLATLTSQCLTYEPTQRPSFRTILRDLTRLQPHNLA

`CNc1ncc(C#Cc2ccc3nc4n(c3c2)CCCC4)c2cc(NC(=O)C3CC3)ncc12` [Example 807, N-(8-(methylamino)-5-((1,2,3,4-tetrahydrobenzo[4,5]imidazo[1,2-a]pyridin-8-yl)ethynyl)-2,7-naphthyridin-3-yl)cyclopropanecarboxamide]: the pKd on TYK2 JH2 was no less than 7.00. For the same molecule, the pIC50 in test [1] was no less than 6.30.
In the same order, the values of `CNc1ncc(C#Cc2ccc3nc4n(c3c2)CCC=C4)c2cc(NC(=O)C3CC3)ncc12` [Example 808, N-(5-((1,2-dihydrobenzo[4,5]imidazo[1,2-a]pyridin-8-yl)ethynyl)-8-(methylamino)-2,7-naphthyridin-3-yl)cyclopropanecarboxamide] are no less than 7.00 and no less than 6.30.
In the same order, the values of `CNc1ncc(C#Cc2ccc3nc4n(c3c2)CCC(F)=C4)c2cc(NC(=O)C3CC3)ncc12` [Example 809, N-(5-((3-fluoro-1,2-dihydrobenzo[4,5]imidazo[1,2-a]pyridin-8-yl)ethynyl)-8-(methylamino)-2,7-naphthyridin-3-yl)cyclopropanecarboxamide] are no less than 7.00 and no less than 6.30.
For `CCc1nc2ccc(C#Cc3cnc(NC)c4cnc(NC(=O)C5CC5)cc34)cc2n1C` [Example 811, N-(5-((2-ethyl-1-methyl-1H-benzo[d]imidazol-6-yl)ethynyl)-8-(methylamino)-2,7-naphthyridin-3-yl)cyclopropanecarboxamide] the same measures were no less than 7.00 and no less than 6.30.
In the case of `[2H]C1([2H])Oc2ccc(C#Cc3cnc(NC)c4cnc(NC(=O)C5CC5)cc34)cc2O1` [Example 812, N-(5-((benzo[d][1,3]dioxol-5-yl-2,2-d2)ethynyl)-8-(methylamino)-2,7-naphthyridin-3-yl)cyclopropanecarboxamide], at TYK2 JH2, the pKd is no less than 7.00. For the same molecule, the pIC50 in test [1] is no less than 6.30.
For `CNc1ncc(C#Cc2ccc3oc(C)cc3c2)c2cc(NC(=O)C3CC3)ncc12` [Example 813, N-(8-(methylamino)-5-((2-methylbenzofuran-5-yl)ethynyl)-2,7-naphthyridin-3-yl)cyclopropanecarboxamide] the same measures were no less than 7.00 and no less than 6.30.
In the case of `CNc1ncc(C#Cc2ccc(CN3C4CCC3COC4)cc2)c2cc(NC(=O)C3CC3)ncc12` [Example 815, N-(5-((4-(3-oxa-8-aza-bicyclo[3.2.1]octan-8-ylmethyl)phenyl)ethynyl)-8-(methylamino)-2,7-naphthyridin-3-yl)cyclopropanecarboxamide], the pKd at TYK2 JH2 was no less than 7.00. Moreover, the pIC50 in test [1] is no less than 6.30.
In the same order, the values of `CNc1ncc(C#Cc2ccc(CN3CC(OC)C3)cc2)c2cc(NC(=O)C3CC3)ncc12` [Example 816, N-(5-((4-((3-methoxyazetidin-1-yl)methyl)phenyl)ethynyl)-8-(methylamino)-2,7-naphthyridin-3-yl)cyclopropanecarboxamide] are no less than 7.00 and no less than 6.30.
For the molecule `[2H]C([2H])([2H])n1nnc2ccc(C#Cc3cnc(NC)c4cnc(NC(=O)C5CC5)cc34)cc21` [Example 817, N-(5-((1-(methyl-d3)-1H-benzo[d][1,2,3]triazol-6-yl)ethynyl)-8-(methylamino)-2,7-naphthyridin-3-yl)cyclopropanecarboxamide], the pKd on TYK2 JH2 is no less than 7.00. The pIC50 in test [1] is no less than 6.30.
In the same order, the values of `[2H]C([2H])([2H])Nc1ncc(C#Cc2ccc3nc(C(F)F)n(C)c3c2)c2cc(NC(=O)C3CC3)ncc12` [Example 818, N-(5-((2-(difluoromethyl)-1-methyl-1H-benzo[d]imidazol-6-yl)ethynyl)-8-((methyl-d3)amino)-2,7-naphthyridin-3-yl)cyclopropanecarboxamide] are no less than 7.00 and no less than 6.30.
On to `[2H]C([2H])([2H])Nc1ncc(C#Cc2ccc3nc(C(F)F)n(C)c3c2)c2cc(NC(=O)[C@H]3C[C@H]3C)ncc12` [Example 819, (1S,2R)—N-(5-((2-(difluoromethyl)-1-methyl-1H-benzo[d]imidazol-6-yl)ethynyl)-8-((methyl-d3)amino)-2,7-naphthyridin-3-yl)-2-methylcyclopropane-1-carboxamide], for which the pKd at TYK2 JH2 was no less than 7.00. For the same molecule, the pIC50 in test [1] is no less than 6.30.
In the same order, the values of `CNc1ncc(C#Cc2ccc(CN3CCOCC3)cc2)c2cc(NC(=O)C3CC3)ncc12` [Example 820, N-(8-(methylamino)-5-((4-(morpholinomethyl)phenyl)ethynyl)-2,7-naphthyridin-3-yl)cyclopropanecarboxamide] are no less than 7.00 and no less than 6.30.
In the case of `CNc1ncc(C#Cc2ccc(CN3CCOCC3)cc2)c2cc(NC(=O)[C@H]3C[C@H]3C)ncc12` [Example 821, (1S,2R)-2-methyl-N-(8-(methylamino)-5-((4-(morpholinomethyl)phenyl)ethynyl)-2,7-naphthyridin-3-yl)cyclopropane-1-carboxamide], the pKd on TYK2 JH2 was no less than 7.00. Also, the pIC50 in test [1] is no less than 6.30.
In the same order, the values of `CNc1ncc(Br)c2c1cnc1[nH]ccc12` [Example 824, 9-bromo-N-methyl-3H-pyrrolo[2,3-c][2,7]naphthyridin-6-amine] are 6.00 to 7.00 and less than 6.30.
For `CNc1ncc(-c2nc3ccccc3o2)c2c1cnc1[nH]ccc12` [Example 825, 9-(benzo[d]oxazol-2-yl)-N-methyl-3H-pyrrolo[2,3-c][2,7]naphthyridin-6-amine] the same measures were no less than 7.00 and less than 6.30.
For `CNc1ncc(CCc2cc(OC)cc(-c3ncnn3C)c2)c2cc(NC(=O)C3CC3)ncc12` [Example 826, N-(5-(3-methoxy-5-(1-methyl-1H-1,2,4-triazol-5-yl)phenethyl)-8-(methylamino)-2,7-naphthyridin-3-yl)cyclopropanecarboxamide] the same measures were no less than 7.00 and less than 6.30.
As for `CNc1ncc(-c2nc(Cc3ncn(C)n3)co2)c2cc(NC(=O)C3CC3)ncc12` [Example 827, N-(5-(4-((1-methyl-1H-1,2,4-triazol-3-yl)methyl)oxazol-2-yl)-8-(methylamino)-2,7-naphthyridin-3-yl)cyclopropanecarboxamide], on TYK2 JH2, the pKd was no less than 7.00. In addition, in test [1], the pIC50 was less than 6.30.
Consider `CNc1ncc(-c2nc(Cc3ncnn3C)co2)c2cc(NC(=O)C3CC3)ncc12` [Example 828, N-(5-(4-((1-methyl-1H-1,2,4-triazol-5-yl)methyl)oxazol-2-yl)-8-(methylamino)-2,7-naphthyridin-3-yl)cyclopropanecarboxamide], for which, at TYK2 JH2, the pKd was no less than 7.00. The pIC50 in test [1] was less than 6.30.
For `CNc1ncc(-c2nc(-c3nc[nH]n3)co2)c2cc(NC(=O)C3CC3)ncc12` [Example 829, N-(5-(4-(1H-1,2,4-triazol-3-yl)oxazol-2-yl)-8-(methylamino)-2,7-naphthyridin-3-yl)cyclopropanecarboxamide] the same measures were no less than 7.00 and no less than 6.30.
For `CNc1ncc(-c2nc(-c3ncn(C)n3)co2)c2cc(NC(=O)C3CC3)ncc12` [Example 830, N-(5-(4-(1-methyl-1H-1,2,4-triazol-3-yl)oxazol-2-yl)-8-(methylamino)-2,7-naphthyridin-3-yl)cyclopropanecarboxamide] the same measures were no less than 7.00 and no less than 6.30.
